Measurements taken from ChEMBL document CHEMBL1125617, “N6-substituted adenosine receptor agonists: potential antihypertensive agents” (J Med Chem, 1991).

Assays:
[1] = target: Adenosine receptors; A1 & A2 (Rattus norvegicus) (UniProt P29276+P25099+P30543); assay: Ratio of Ki values of A1 adenosine and A2 adenosine receptor; type: protein assay
Adenosine receptor A1 = target: T1, Adenosine receptor A1 (Rattus norvegicus, UniProt P25099); assay: Binding affinity towards adenosine A1 receptor
T1 sequence (P25099 whole entry): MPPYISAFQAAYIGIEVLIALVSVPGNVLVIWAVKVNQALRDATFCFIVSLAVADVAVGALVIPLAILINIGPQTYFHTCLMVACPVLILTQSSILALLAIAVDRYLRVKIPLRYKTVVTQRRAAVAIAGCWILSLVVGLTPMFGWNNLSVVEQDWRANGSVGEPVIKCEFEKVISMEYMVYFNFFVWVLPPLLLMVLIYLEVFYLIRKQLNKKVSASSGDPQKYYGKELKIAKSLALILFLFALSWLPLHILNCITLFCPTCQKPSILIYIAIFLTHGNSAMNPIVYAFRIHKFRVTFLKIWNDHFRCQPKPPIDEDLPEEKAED

Adenosine A2 receptor = Adenosine A2 receptor (Rattus norvegicus, UniProt P29276+P30543); assay: Binding affinity towards adenosine A2 receptor; type: protein assay
Rattus norvegicus [2] = assay: Antihypertensive activity measured as change in heart rate was measured for a 10-h after 10 mg/kg oral dose; type: functional
Rattus norvegicus [3] = assay: Antihypertensive activity was measured as change in blood pressure for a 10-h after 10 mg/kg oral dose; type: functional
Rattus norvegicus [4] = assay: Antihypertensive activity measured as change in blood pressure for a 10-h after 10 mg/kg oral dose in rat; type: functional

Ratio [1]	Ki (Adenosine receptor A1) [nM]	Ki (Adenosine A2 receptor) [nM]	SMILES	Change (Rattus norvegicus [2]) [%]	Change (Rattus norvegicus [3]) [%]	Change (Rattus norvegicus [4]) [%]
7.3	87.9	642	CC(C)Oc1cccc2c1CCCC2Nc1ncnc2c1ncn2[C@@H]1O[C@H](CO)[C@@H](O)[C@H]1O (stereo not given in full)	24		-19
102	425	43440	CC(C)Oc1ccc2c(c1)C(Nc1ncnc3c1ncn3[C@@H]1O[C@H](CO)[C@@H](O)[C@H]1O)CCC2 (stereo not given in full)	27		-41

The remaining lines, values behind:

SMILES	Ratio [1]	Ki (Adenosine receptor A1) [nM]	Ki (Adenosine A2 receptor) [nM]	Change (Rattus norvegicus [2]) [%]	Change (Rattus norvegicus [3]) [%]	Change (Rattus norvegicus [4]) [%]
CCOc1cccc2c1CCCC2Nc1ncnc2c1ncn2[C@@H]1O[C@H](CO)[C@@H](O)[C@H]1O (stereo not given in full)	9.6	41.2	396	<10	-42	
OC[C@H]1O[C@@H](n2cnc3c(NC4COc5ccccc5C4)ncnc32)[C@H](O)[C@@H]1O (stereo not given in full)	36.5	13.6	496	-33	-38	
OC[C@H]1O[C@@H](n2cnc3c(NCC4CCCCc5ccccc54)ncnc32)[C@H](O)[C@@H]1O (stereo not given in full)	7.3	118	857	<10		<10
